Assay results: PMC10318822, “Phase 1 dose-escalation study to evaluate the safety, tolerability, pharmacokinetics, and anti-tumor activity of FCN-159 in adults with neurofibromatosis type 1-related unresectable plexiform neurofibromas” (BMC Medicine, 2023)

Test system: adult patients with NF1-related PN
Test: Phase I dose-escalation: DLT, MTD, RP2D and drug-related TEAEs (CTCAE v5.0)
Experimental: This is a multicenter, open-label, single-arm, non-randomized, phase I dose-escalation trial to evaluate the safety, tolerability, pharmacokinetic (PK), and anti-tumor activity of orally administered FCN-159 in adult patients with NF1 (NCT04954001). Phase I commenced with dose escalation in adult patients following a standard 3 + 3 design (Supplementary Table S1) to determine the maximum tolerated dose (MTD) of FCN-159 administered daily under fasting conditions (defined as no food or drink 1 h before and 2 h after each dose) in 28-day cycles. Study drug was dispensed at the study site and patient adherence was monitored by the records of drug dispensation and return. Patients were on treatment until PD, death, patient's voluntary withdrawal from study treatment, or study termination. The study was followed for 2 years after the last patient in. The starting dose was 4 mg, escalating in cohorts of at least three evaluable patients at 6 mg, 8 mg, and 12 mg until the MTD was determined. The starting dose in this study was determined based on available data from a phase 1a, first-in-human study of FCN-159 in patients with advanced NRAS ^mut+ melanoma at the time of study design. […] Dose expansion at a likely RP2D level enrolled approximately six patients. The highest dose level with a dose-limiting toxicity (DLT) incidence rate ≤ 33% (0/3 or 1/6 patients) was to be considered the MTD. If patients experienced grade ≥ 3 and/or unacceptable toxic events that were considered as at least possibly related to the study treatment, the study treatment was discontinued and supportive treatment was given in accordance with local treatment routines. If the toxicity returned to grade ≤ 2 within 28 days after the occurrence, and there was no progression on patients’ conditions or the investigator believed that patients could benefit from the study treatment, the original dose could be maintained or reduced after discussion with medical monitor. After completion of the dose escalation part of the study, PK, efficacy, safety, and tolerability data were analyzed to select the RP2D.
Primary endpoints of the study were the DLT incidence rate, MTD, and RP2D. Secondary endpoints included other safety assessments, imaging tumor response (complete response [CR], PR, stable disease [SD], or progressive disease [PD]), and PK parameters of FCN-159. Adverse events were graded per CTCAE v5.0.
All patients underwent a complete medical history, physical examination, Eastern Cooperative Oncology Group (ECOG) assessment, and laboratory analysis of test results. Drug-related TEAEs, serious adverse events (SAEs), TEAEs of grade ≥ 3 toxicity, and TEAEs leading to drug discontinuation were reviewed on an ongoing basis. Efficacy was assessed by radiologic scans and clinical assessment. Tumor assessments per Response Evaluation in Neurofibromatosis Schwannomatosis criteria were performed by investigators using MRI volumetric analysis every 4 cycles within the first 2 years (± 7 days) and every 6 cycles after 2 years (± 14 days) until PD, death, patient's voluntary withdrawal from study treatment, or study termination. MRI sequences of […], T1- and T2-weighted sequences were chosen and the software of Extended Brilliance Workspace, SIGNA Premier and uExceed were used for MRI volumetric analysis. The same software was used for all tumor assessments at baseline and subsequent assessed timepoints of the same patient. Pain was assessed by an 11-point numerical rating scale (NRS-11).
The sample size for the dose-escalation study was estimated to be 24 based on the 3 + 3 method. Safety was analyzed in patients who received at least one dose of FCN-159 and had at least one safety assessment. DLT was assessed in the DLT analysis set, defined as patients who were enrolled in the dose-escalation study and met the DLT evaluation criteria.

`Cn1c(=O)c(F)c(Nc2ccc(I)cc2F)c2c(=O)n(C3CC3)nc(-c3cccc(NS(=O)(=O)C4CC4)c3)c21` [FCN-159] was tested, and the DLT events (4 mg) was “No DLT events were observed”, the “Drug-related TEAE: Abdominal pain” value (4 mg (N = 3)) was 0 n (%) and the “Drug-related TEAE: Acne” value (4 mg (N = 3)) was 0 n (%). The “Drug-related TEAE: Acne pustular” value (4 mg (N = 3)) was 0 n (%), the “Drug-related TEAE: Alanine aminotransferase increased” value (4 mg (N = 3)) was 0 n (%) and the “Drug-related TEAE: Albumin globulin ratio decreased” value (4 mg (N = 3)) was 0 n (%). The “Drug-related TEAE: Alopecia” value (4 mg (N = 3)) was 0 n (%), the “Drug-related TEAE: Amylase increased” value (4 mg (N = 3)) was 0 n (%) and the “Drug-related TEAE: Anemia” value (4 mg (N = 3)) was 0 n (%). The “Drug-related TEAE: Aortic dilatation” value (4 mg (N = 3)) was 0 n (%), the “Drug-related TEAE: Aspartate aminotransferase increased” value (4 mg (N = 3)) was 0 n (%) and the “Drug-related TEAE: Asthenia” value (4 mg (N = 3)) was 0 n (%). For the same compound, the “Drug-related TEAE: Beta globulin decreased” value (4 mg (N = 3)) was 1 (33.3) n (%), the “Drug-related TEAE: Beta globulin increased” value (4 mg (N = 3)) was 1 (33.3) n (%) and the “Drug-related TEAE: Blood alkaline phosphatase increased” value (4 mg (N = 3)) was 0 n (%). For the same compound, the “Drug-related TEAE: Blood bilirubin increased” value (4 mg (N = 3)) was 1 (33.3) n (%), the “Drug-related TEAE: Blood creatine phosphokinase increased” value (4 mg (N = 3)) was 1 (33.3) n (%) and the “Drug-related TEAE: Blood fibrinogen increased” value (4 mg (N = 3)) was 0 n (%). The “Drug-related TEAE: Blood lactate dehydrogenase increased” value (4 mg (N = 3)) was 1 (33.3) n (%), the “Drug-related TEAE: Blood pressure increased” value (4 mg (N = 3)) was 0 n (%) and the “Drug-related TEAE: Blood urea increased” value (4 mg (N = 3)) was 1 (33.3) n (%). For the same compound, the “Drug-related TEAE: Blood uric acid increased” value (4 mg (N = 3)) was 1 (33.3) n (%), the “Drug-related TEAE: Breath odor” value (4 mg (N = 3)) was 0 n (%) and the “Drug-related TEAE: Capillary disorder” value (4 mg (N = 3)) was 1 (33.3) n (%). For the same compound, the “Drug-related TEAE: Constipation” value (4 mg (N = 3)) was 0 n (%), the “Drug-related TEAE: Decreased appetite” value (4 mg (N = 3)) was 0 n (%) and the “Drug-related TEAE: Dermatitis acneiform” value (4 mg (N = 3)) was 0 n (%). For the same compound, the “Drug-related TEAE: Diarrhea” value (4 mg (N = 3)) was 0 n (%), the “Drug-related TEAE: Drug eruption” value (4 mg (N = 3)) was 1 (33.3) n (%) and the “Drug-related TEAE: Dyslipidemia” value (4 mg (N = 3)) was 1 (33.3) n (%). For the same compound, the “Drug-related TEAE: Ejection fraction decreased” value (4 mg (N = 3)) was 0 n (%), the “Drug-related TEAE: Electrocardiogram QT prolonged” value (4 mg (N = 3)) was 0 n (%) and the “Drug-related TEAE: Electrocardiogram abnormal” value (4 mg (N = 3)) was 0 n (%). For the same compound, the “Drug-related TEAE: Epistaxis” value (4 mg (N = 3)) was 1 (33.3) n (%), the “Drug-related TEAE: Folliculitis” value (4 mg (N = 3)) was 0 n (%) and the “Drug-related TEAE: Functional gastrointestinal disorder” value (4 mg (N = 3)) was 0 n (%). The “Drug-related TEAE: Gamma-glutamyltransferase increased” value (4 mg (N = 3)) was 0 n (%), the “Drug-related TEAE: Gingival pain” value (4 mg (N = 3)) was 0 n (%) and the “Drug-related TEAE: Hyperlipidemia” value (4 mg (N = 3)) was 0 n (%). For the same compound, the “Drug-related TEAE: Hypertension” value (4 mg (N = 3)) was 0 n (%), the “Drug-related TEAE: Hypoalbuminemia” value (4 mg (N = 3)) was 0 n (%) and the “Drug-related TEAE: Hypocalcemia” value (4 mg (N = 3)) was 0 n (%). For the same compound, the “Drug-related TEAE: Hypophosphatemia” value (4 mg (N = 3)) was 0 n (%), the “Drug-related TEAE: Hypoproteinemia” value (4 mg (N = 3)) was 0 n (%) and the “Drug-related TEAE: Immunoglobulins increased” value (4 mg (N = 3)) was 2 (66.7) n (%). For the same compound, the “Drug-related TEAE: Impetigo” value (4 mg (N = 3)) was 1 (33.3) n (%), the “Drug-related TEAE: Left atrial enlargement” value (4 mg (N = 3)) was 0 n (%) and the “Drug-related TEAE: Lipoprotein abnormal” value (4 mg (N = 3)) was 1 (33.3) n (%). The “Drug-related TEAE: Malaise” value (4 mg (N = 3)) was 1 (33.3) n (%), the “Drug-related TEAE: Menstrual disorder” value (4 mg (N = 3)) was 0 n (%) and the “Drug-related TEAE: Mitral valve incompetence” value (4 mg (N = 3)) was 0 n (%). The “Drug-related TEAE: Mouth ulceration” value (4 mg (N = 3)) was 0 n (%), the “Drug-related TEAE: Muscular weakness” value (4 mg (N = 3)) was 0 n (%) and the “Drug-related TEAE: Oedema peripheral” value (4 mg (N = 3)) was 0 n (%). The “Drug-related TEAE: Pain in extremity” value (4 mg (N = 3)) was 1 (33.3) n (%), the “Drug-related TEAE: Paronychia” value (4 mg (N = 3)) was 1 (33.3) n (%) and the “Drug-related TEAE: Prealbumin decreased” value (4 mg (N = 3)) was 0 n (%). For the same compound, the “Drug-related TEAE: Protein urine present” value (4 mg (N = 3)) was 1 (33.3) n (%), the “Drug-related TEAE: Pruritus” value (4 mg (N = 3)) was 0 n (%) and the “Drug-related TEAE: QRS axis abnormal” value (4 mg (N = 3)) was 1 (33.3) n (%). The “Drug-related TEAE: Rash” value (4 mg (N = 3)) was 1 (33.3) n (%), the “Drug-related TEAE: Sinus arrhythmia” value (4 mg (N = 3)) was 1 (33.3) n (%) and the “Drug-related TEAE: Sinus bradycardia” value (4 mg (N = 3)) was 1 (33.3) n (%). The “Drug-related TEAE: Sinusitis” value (4 mg (N = 3)) was 0 n (%), the “Drug-related TEAE: Skin exfoliation” value (4 mg (N = 3)) was 0 n (%) and the “Drug-related TEAE: Specific gravity urine increased” value (4 mg (N = 3)) was 1 (33.3) n (%). The “Drug-related TEAE: Stomatitis” value (4 mg (N = 3)) was 2 (66.7) n (%), the “Drug-related TEAE: Supraventricular extrasystoles” value (4 mg (N = 3)) was 1 (33.3) n (%) and the “Drug-related TEAE: Total bile acids increased” value (4 mg (N = 3)) was 1 (33.3) n (%). The “Drug-related TEAE: Tricuspid valve incompetence” value (4 mg (N = 3)) was 0 n (%), the “Drug-related TEAE: Urinary occult blood positive” value (4 mg (N = 3)) was 0 n (%) and the “Drug-related TEAE: Urinary sediment present” value (4 mg (N = 3)) was 0 n (%). For the same compound, the “Drug-related TEAE: Urinary tract infection” value (4 mg (N = 3)) was 0 n (%), the “Drug-related TEAE: Urine ketone body present” value (4 mg (N = 3)) was 0 n (%) and the “Drug-related TEAE: Urobilinogen urine increased” value (4 mg (N = 3)) was 2 (66.7) n (%). For the same compound, the “Drug-related TEAE: Urticaria” value (4 mg (N = 3)) was 0 n (%), the “Drug-related TEAE: Vision blurred” value (4 mg (N = 3)) was 0 n (%) and the “Drug-related TEAE: Visual acuity reduced” value (4 mg (N = 3)) was 0 n (%). The “Drug-related TEAE: pH urine decreased” value (4 mg (N = 3)) was 0 n (%), the “Drug-related TEAE: pH urine increased” value (4 mg (N = 3)) was 1 (33.3) n (%) and the “Subjects with any drug-related TEAE” value (4 mg (N = 3)) was 3 (100) n (%). The DLT events (6 mg) was “No DLT events were observed”, the “Drug-related TEAE: Abdominal pain” value (6 mg (N = 4)) was 0 n (%) and the “Drug-related TEAE: Acne” value (6 mg (N = 4)) was 1 (25.0) n (%). For the same compound, the “Drug-related TEAE: Acne pustular” value (6 mg (N = 4)) was 0 n (%), the “Drug-related TEAE: Alanine aminotransferase increased” value (6 mg (N = 4)) was 1 (25.0) n (%) and the “Drug-related TEAE: Albumin globulin ratio decreased” value (6 mg (N = 4)) was 0 n (%). The “Drug-related TEAE: Alopecia” value (6 mg (N = 4)) was 1 (25.0) n (%), the “Drug-related TEAE: Amylase increased” value (6 mg (N = 4)) was 0 n (%) and the “Drug-related TEAE: Anemia” value (6 mg (N = 4)) was 0 n (%). For the same compound, the “Drug-related TEAE: Aortic dilatation” value (6 mg (N = 4)) was 0 n (%), the “Drug-related TEAE: Aspartate aminotransferase increased” value (6 mg (N = 4)) was 2 (50.0) n (%) and the “Drug-related TEAE: Asthenia” value (6 mg (N = 4)) was 1 (25.0) n (%). For the same compound, the “Drug-related TEAE: Beta globulin decreased” value (6 mg (N = 4)) was 0 n (%), the “Drug-related TEAE: Beta globulin increased” value (6 mg (N = 4)) was 1 (25.0) n (%) and the “Drug-related TEAE: Blood alkaline phosphatase increased” value (6 mg (N = 4)) was 1 (25.0) n (%). The “Drug-related TEAE: Blood bilirubin increased” value (6 mg (N = 4)) was 2 (50.0) n (%), the “Drug-related TEAE: Blood creatine phosphokinase increased” value (6 mg (N = 4)) was 0 n (%) and the “Drug-related TEAE: Blood fibrinogen increased” value (6 mg (N = 4)) was 0 n (%). The “Drug-related TEAE: Blood lactate dehydrogenase increased” value (6 mg (N = 4)) was 1 (25.0) n (%), the “Drug-related TEAE: Blood pressure increased” value (6 mg (N = 4)) was 0 n (%) and the “Drug-related TEAE: Blood urea increased” value (6 mg (N = 4)) was 2 (50.0) n (%). For the same compound, the “Drug-related TEAE: Blood uric acid increased” value (6 mg (N = 4)) was 1 (25.0) n (%), the “Drug-related TEAE: Breath odor” value (6 mg (N = 4)) was 2 (50.0) n (%) and the “Drug-related TEAE: Capillary disorder” value (6 mg (N = 4)) was 0 n (%). For the same compound, the “Drug-related TEAE: Constipation” value (6 mg (N = 4)) was 0 n (%).
